Test results published in ChEMBL document CHEMBL1201862, “PubChem BioAssay data set” (2004).
Calls of active or inactive are those of the source.

How the values were obtained:
[1] = molecular target: Luciferin 4-monooxygenase (Photinus pyralis, UniProt P08659); test: firefly luciferase enzyme inhibitors, dose response, biochemical, luminescence (AID 1891)
[2] = Luminescence Cell-Based Dose Confirmation HTS to Identify Inhibitors of Platelet Dense Granule Release. [Related pubchem assays: 1663 (Primary HTS), 1678 (Summary of Project)]; format: functional
[3] = molecular target: T1, Replicative DNA helicase DnaB (Mycobacterium tuberculosis, UniProt P9WMR3); test: DnaB intein splicing inhibitors, dose response, biochemical, cell-free fluorescence (AID 449749); format: functional
T1 sequence (P9WMR3 whole entry): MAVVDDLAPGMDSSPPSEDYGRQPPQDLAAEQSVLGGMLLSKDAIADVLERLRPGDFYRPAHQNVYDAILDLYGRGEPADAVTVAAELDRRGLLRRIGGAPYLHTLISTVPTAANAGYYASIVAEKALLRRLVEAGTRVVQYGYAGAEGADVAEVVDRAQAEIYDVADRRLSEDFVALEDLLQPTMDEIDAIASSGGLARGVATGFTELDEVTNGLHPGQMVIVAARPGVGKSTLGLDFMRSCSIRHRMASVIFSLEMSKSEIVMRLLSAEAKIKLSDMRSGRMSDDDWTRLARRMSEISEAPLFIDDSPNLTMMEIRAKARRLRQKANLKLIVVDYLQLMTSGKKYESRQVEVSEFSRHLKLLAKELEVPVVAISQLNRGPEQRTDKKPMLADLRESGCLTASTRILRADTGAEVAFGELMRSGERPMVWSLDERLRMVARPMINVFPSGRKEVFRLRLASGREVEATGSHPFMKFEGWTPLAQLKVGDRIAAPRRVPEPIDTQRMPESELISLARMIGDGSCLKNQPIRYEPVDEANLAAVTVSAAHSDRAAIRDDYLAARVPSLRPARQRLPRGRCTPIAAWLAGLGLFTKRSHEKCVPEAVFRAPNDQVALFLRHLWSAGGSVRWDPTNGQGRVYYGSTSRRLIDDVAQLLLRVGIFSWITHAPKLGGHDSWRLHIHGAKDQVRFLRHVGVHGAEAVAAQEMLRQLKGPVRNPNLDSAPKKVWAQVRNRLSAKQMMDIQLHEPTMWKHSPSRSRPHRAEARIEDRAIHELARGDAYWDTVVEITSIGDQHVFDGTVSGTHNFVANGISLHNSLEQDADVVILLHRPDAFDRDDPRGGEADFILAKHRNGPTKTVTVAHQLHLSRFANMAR

[4] = molecular target: T2, Protein RecA (Mycobacterium tuberculosis, UniProt P9WHJ3); test: Fluorescence Cell-Free Homogeneous Dose Retest to Identify Inhibitors of RecA-Intein Splicing Activity. [Related pubchem assays (depositor defined):AID2097, AID2223, AID489010, AID492950]; format: functional
T2 sequence (P9WHJ3 whole entry): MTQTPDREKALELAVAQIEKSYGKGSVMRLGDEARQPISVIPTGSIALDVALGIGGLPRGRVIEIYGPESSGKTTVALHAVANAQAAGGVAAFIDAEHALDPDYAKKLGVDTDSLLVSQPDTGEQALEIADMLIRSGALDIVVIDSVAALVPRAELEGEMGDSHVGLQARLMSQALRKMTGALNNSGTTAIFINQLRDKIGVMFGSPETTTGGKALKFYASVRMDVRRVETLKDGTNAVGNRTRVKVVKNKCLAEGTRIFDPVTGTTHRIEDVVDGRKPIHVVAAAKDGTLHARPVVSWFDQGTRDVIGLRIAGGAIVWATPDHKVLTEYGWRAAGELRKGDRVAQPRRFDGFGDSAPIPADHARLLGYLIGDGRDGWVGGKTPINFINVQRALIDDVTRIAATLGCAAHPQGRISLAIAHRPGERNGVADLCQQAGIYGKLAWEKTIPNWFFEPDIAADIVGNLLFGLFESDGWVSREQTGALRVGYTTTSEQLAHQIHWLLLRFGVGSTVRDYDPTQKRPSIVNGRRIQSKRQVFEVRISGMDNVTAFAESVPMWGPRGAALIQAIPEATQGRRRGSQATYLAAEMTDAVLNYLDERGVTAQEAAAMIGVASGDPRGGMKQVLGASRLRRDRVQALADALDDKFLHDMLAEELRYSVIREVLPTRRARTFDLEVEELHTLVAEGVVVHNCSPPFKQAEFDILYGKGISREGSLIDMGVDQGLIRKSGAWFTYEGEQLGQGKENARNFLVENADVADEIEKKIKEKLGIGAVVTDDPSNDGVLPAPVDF

[5] = molecular target: T3, Polyadenylate-binding protein 1 (Homo sapiens, UniProt P11940); test: PABP1 MLLE–PAM2 binding inhibitor potency, dose response, biochemical, fluorescence polarization, FITC-PAM2 peptide (AID 602259); format: functional; conditions: read-out: IC50_Mean
[6] = molecular target: T3, Polyadenylate-binding protein 1; test: PABP1 MLLE–PAM2 interaction inhibitors, dose response, miRNA deadenylation inhibitor project, biochemical, fluorescence polarization, Cy5-PAM2 peptide, secondary (AID 602260); format: functional; conditions: read-out: IC50_Mean
[7] = molecular target: T4, Heat shock factor protein 1 (Mus musculus, UniProt P38532); test: HSF1 potentiators in luciferase reporter cells, confirmation, cell-based, NIH3T3, luminescence, dose retest (AID 435004); format: functional;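 note: stress induced by proteasome inhibitor MG132 added 30 min after compound; luciferase reporter driven by HSF1 response element in NIH3T3 cells; actives raise luminescence as potentiators of the MG132 stress response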
T4 sequence (P38532 whole entry): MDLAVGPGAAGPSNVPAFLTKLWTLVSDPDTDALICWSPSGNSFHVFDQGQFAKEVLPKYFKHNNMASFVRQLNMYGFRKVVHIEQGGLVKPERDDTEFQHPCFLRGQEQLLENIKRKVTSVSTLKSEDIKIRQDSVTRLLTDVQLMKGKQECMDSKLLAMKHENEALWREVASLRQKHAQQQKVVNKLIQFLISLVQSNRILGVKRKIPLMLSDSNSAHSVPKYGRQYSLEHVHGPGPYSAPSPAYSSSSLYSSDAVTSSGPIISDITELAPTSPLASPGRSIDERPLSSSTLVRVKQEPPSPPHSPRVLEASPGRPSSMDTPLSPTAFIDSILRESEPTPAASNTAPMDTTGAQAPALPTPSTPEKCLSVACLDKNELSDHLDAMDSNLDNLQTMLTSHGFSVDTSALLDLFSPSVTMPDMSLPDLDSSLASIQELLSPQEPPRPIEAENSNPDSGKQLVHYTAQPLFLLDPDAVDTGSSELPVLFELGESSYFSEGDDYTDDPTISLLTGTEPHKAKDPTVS

[8] = microbe, parasite or virus in culture; format: functional; conditions: Mycobacterium tuberculosis
[9] = Shn3 3'UTR reporter inhibitors, dose response, cell-based, Clone20 osteoblasts, firefly luciferase, cherry-picked (AID 624132); format: functional;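 note: firefly luciferase luminescence from reporter carrying the Shn3 3'UTR in osteoblasts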
[10] = system: H9c2; test: cells; format: functional, cell-based; conditions: Rattus norvegicus, H9c2, Myocardium;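 note: confirmatory concentration-response retest of ultra-high-throughput screening hits for modulation of myocardial damage; cell death induced by hydrogen peroxide oxidative stress; compound pretreatment for 60 min then peroxide exposure for 2 h; potency is for protecting the cells against peroxide damage rather than for killing them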
[11] = HEp-2 cell cytotoxicity, dose response, cytotoxicity control for RSV inhibitor project, HTS (AID 2410); format: functional; conditions: human respiratory syncytial virus
[12] = molecular target: T4, Heat shock factor protein 1; test: inhibition of MG132-induced HSE-luciferase signal, confirmation, cell-based, NIH3T3, luminescence, dose retest (AID 2382); format: functional;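 note: NIH3T3 fibroblasts with HSF1-driven luciferase reporter stressed by proteasome inhibitor MG132; luminescence from HSF1-driven luciferase expression after 8 hours of MG132 stress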
[13] = molecular target: Cytochrome P450 2C9 (Homo sapiens, UniProt P11712)
[14] = molecular target: Paired box protein Pax-8 (Homo sapiens, UniProt Q06710); test: inhibitors of PAX8-driven TPO luciferase reporter, dose response, RMG-I cells, cherry-pick (AID 687027); format: functional, cell-based;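 note: luciferase reporter driven by Pax8 target thyroperoxidase promoter measured by SteadyGlo luminescence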
[15] = Luminescence Cell-Based Dose Retest to Confirm Inhibitors of Cancer Stem Cells. [Related pubchem assays (depositor defined):AID2717, AID2721]; format: functional; conditions: Homo sapiens

Sequence of Luciferin 4-monooxygenase (P08659 whole entry): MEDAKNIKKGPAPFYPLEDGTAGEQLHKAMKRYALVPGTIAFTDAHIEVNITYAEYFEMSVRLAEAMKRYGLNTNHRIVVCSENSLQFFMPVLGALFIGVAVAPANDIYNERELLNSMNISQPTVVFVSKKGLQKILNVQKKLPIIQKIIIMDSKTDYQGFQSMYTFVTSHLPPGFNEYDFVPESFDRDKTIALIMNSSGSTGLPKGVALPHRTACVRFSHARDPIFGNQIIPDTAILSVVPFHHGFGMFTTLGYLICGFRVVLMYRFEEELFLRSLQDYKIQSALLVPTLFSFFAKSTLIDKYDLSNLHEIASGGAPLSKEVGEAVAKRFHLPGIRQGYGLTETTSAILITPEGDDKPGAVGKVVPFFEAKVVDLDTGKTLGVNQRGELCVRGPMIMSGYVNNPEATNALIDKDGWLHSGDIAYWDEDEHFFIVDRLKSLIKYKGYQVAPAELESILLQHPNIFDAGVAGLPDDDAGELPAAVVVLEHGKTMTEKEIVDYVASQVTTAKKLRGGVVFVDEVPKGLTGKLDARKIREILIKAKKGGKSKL
Sequence of Paired box protein Pax-8 (Q06710 whole entry): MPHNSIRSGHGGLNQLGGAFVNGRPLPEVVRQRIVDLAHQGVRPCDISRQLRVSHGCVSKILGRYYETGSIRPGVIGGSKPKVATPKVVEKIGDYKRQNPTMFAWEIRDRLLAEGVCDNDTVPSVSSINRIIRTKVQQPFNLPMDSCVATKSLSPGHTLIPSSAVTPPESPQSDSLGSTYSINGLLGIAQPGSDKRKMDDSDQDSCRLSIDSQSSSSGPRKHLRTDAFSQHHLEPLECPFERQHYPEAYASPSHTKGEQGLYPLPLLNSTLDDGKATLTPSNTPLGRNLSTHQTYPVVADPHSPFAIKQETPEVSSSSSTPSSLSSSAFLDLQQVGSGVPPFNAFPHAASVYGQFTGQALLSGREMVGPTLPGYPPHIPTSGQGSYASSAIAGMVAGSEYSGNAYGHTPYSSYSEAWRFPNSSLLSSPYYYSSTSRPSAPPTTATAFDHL
T3 sequence (P11940 whole entry): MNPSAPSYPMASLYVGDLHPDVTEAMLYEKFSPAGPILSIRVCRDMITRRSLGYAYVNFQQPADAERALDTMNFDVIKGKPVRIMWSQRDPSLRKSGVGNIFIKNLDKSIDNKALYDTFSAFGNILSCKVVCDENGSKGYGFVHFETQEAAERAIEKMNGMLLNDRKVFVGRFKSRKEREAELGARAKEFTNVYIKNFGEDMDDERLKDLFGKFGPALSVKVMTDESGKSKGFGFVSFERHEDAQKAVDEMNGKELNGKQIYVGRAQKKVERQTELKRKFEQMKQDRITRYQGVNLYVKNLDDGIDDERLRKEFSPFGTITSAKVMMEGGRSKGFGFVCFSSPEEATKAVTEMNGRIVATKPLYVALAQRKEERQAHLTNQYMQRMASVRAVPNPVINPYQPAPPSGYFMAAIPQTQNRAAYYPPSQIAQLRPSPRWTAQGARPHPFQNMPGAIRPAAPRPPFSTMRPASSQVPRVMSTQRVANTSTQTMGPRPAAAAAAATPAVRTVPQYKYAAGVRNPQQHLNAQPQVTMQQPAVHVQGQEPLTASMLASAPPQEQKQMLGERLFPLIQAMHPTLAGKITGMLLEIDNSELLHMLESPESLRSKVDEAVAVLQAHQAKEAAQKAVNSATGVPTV
Sequence of Cytochrome P450 2C9 (P11712 whole entry): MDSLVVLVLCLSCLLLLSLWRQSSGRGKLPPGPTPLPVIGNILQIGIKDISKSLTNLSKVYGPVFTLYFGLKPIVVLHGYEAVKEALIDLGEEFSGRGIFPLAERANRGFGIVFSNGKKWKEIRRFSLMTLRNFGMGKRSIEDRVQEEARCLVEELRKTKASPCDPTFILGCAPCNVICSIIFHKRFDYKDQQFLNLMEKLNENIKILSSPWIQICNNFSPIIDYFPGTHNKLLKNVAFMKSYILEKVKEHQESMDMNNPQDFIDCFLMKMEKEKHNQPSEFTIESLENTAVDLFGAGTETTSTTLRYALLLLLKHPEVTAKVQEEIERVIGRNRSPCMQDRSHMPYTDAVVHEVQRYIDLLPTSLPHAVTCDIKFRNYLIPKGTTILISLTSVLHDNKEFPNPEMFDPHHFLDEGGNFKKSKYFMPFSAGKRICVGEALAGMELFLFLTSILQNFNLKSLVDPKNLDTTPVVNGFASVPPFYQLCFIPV

## COc1ccccc1NC(=O)C(C)NS(=O)(=O)c1ccccc1 (stereo unspecified)
[1]
  EC50: > 112 µM (not active)
[2]
  EC50: > 112 µM (not active)

## O=C(CCl)Nc1ccccc1C(=O)Nc1ccc2c(c1)OCO2
[3]
  AC50: 64.8 µM (active)
[4]
  EC50: 13 µM (active)
[1]
  EC50: > 112 µM (not active)
[2]
  EC50: 27.7 µM (active)

## CCOC1=C2CN(S(=O)(=O)c3ccc(C)cc3)[C@@H](c3ccccc3)C[C@H]2[C@H]2C(=O)N(c3ccccc3)C(=O)[C@H]2C1
[5]
  IC50: 51 µM (inactive)
[6]
  IC50: > 66 µM (inactive)

## CCOc1ccc(CN(C)CC(O)COC(c2ccc(OC)cc2)c2ccc(OC)cc2)cc1 (stereo unspecified)
[7]
  EC50: > 260 µM (inactive)
[8]
  CC50: 26.6 µM (active)

## CCOc1ccccc1N(C(=O)c1snc(C(N)=O)c1N)C(C(=O)NC1CCCC1)c1cccs1 (stereo unspecified)
[5]
  IC50: > 66 µM (inactive)
[6]
  IC50: > 66 µM (inactive)

## CCOC(=O)NC1(C(F)(F)F)NC(=O)N(Cc2ccco2)C1=O (stereo unspecified)
[1]
  EC50: > 112 µM (not active)
[2]
  EC50: > 112 µM (not active)

## Cc1cccc(C)c1NC(=O)CN(C)C(=O)c1cc(S(=O)(=O)N(C)C)ccc1N1CCCC1
[9]
  AC50: 27.1 µM (active)

## Cn1c(SCC(=O)NNC(=O)Nc2ccc(Cl)cc2)nnc1-c1ccccc1
[7]
  EC50: > 260 µM (inactive)

## O=C(Cc1nnc(O)c2ccccc12)NCc1ccc(Cl)cc1
[1]
  EC50: > 112 µM (not active)
[10]
  IC50: > 79 µM (inactive)
[2]
  EC50: > 112 µM (not active)

## COc1ccc(CNC(=O)c2cc(-c3cc(C)cc(C)c3O)[nH]n2)cc1
[11]
  CC50: > 50 µM (active)

## CCC(c1nnnn1Cc1ccco1)N(Cc1cc2cc(OC)ccc2nc1O)C1CCCCC1 (stereo unspecified)
[7]
  EC50: 10.7 µM (active)
[3]
  AC50: > 380 µM (inactive)
[4]
  EC50: 40.2 µM (inconclusive)

## COc1ccc(NC(=O)NNC(=O)c2cc3occc3n2C)c(OC)c1
[7]
  EC50: > 260 µM (inactive)

## Cc1ccc(CN(C)C(=O)C2CCC(=O)N(CCc3ccccc3)C2)o1 (stereo unspecified)
[7]
  EC50: > 260 µM (inactive)

## CC1Cc2ccccc2N1C(=O)CSc1ncccc1C(=O)O (stereo unspecified)
[12]
  EC50: > 195 µM (not active)

## CN(Cc1ccc2c(c1)CCCN2C)C(=O)[C@H]1O[C@@H](n2ccc(=O)[nH]c2=O)[C@H](O)[C@@H]1O
[5]
  IC50: > 66 µM (inactive)
[6]
  IC50: > 66 µM (inactive)

## O=C(CSCc1c(Cl)cccc1Cl)NCc1ccco1
[1]
  EC50: > 112 µM (not active)
[2]
  EC50: > 112 µM (not active)

## Nc1nnnn1/N=C/c1cccc(Br)c1
[11]
  CC50: > 50 µM (active)

## Cc1ccccc1-n1c(=O)cc(N2CCc3ccccc32)[nH]c1=O
[12]
  EC50: > 195 µM (not active)

## Cc1ncoc1C(=O)Nc1ccc2c(c1)OCCO2
[1]
  EC50: 34.3 µM (active)
[2]
  EC50: 5.11 µM (active)

## Cc1ccnc(SC2CC(=O)N(c3ccc([N+](=O)[O-])cc3)C2=O)n1 (stereo unspecified)
[5]
  IC50: > 66 µM (inactive)
[6]
  IC50: > 66 µM (inactive)

## COc1cc(NC(=O)c2cc3ccccc3cc2OC)ccc1NC(=O)c1cccs1
[12]
  EC50: 14.1 µM (active)
[10]
  IC50: > 79 µM (inactive)

## O=C1CCC(c2ccc(-n3ccnc3)cc2)=NN1 [IMAZODAN]
[1]
  EC50: > 112 µM (not active)
[13]
  AC50: 31.6 µM (inconclusive)
[2]
  EC50: 1.36 µM (active)

## C[C@@H]1CN([C@@H](C)CO)S(=O)(=O)c2ccc(C#Cc3ccccc3F)cc2O[C@H]1CN(C)CC1CCOCC1
[14]
  AC50: 10.3 µM (active)

## Cc1cc(C)n(C(=O)c2ccc(S(=O)(=O)N3CCCC3)cc2)n1
[1]
  EC50: > 112 µM (not active)
[2]
  EC50: > 112 µM (not active)

## COc1ccc(NC(=O)CN2C(=O)C(c3ccccc3)=NC23CCCCCC3)cc1
[1]
  EC50: > 112 µM (not active)
[2]
  EC50: > 112 µM (not active)

## COc1ccc(NC(=O)CC2Sc3ncnn3C2=O)cc1 (stereo unspecified)
[5]
  IC50: > 66 µM (inactive)
[6]
  IC50: > 66 µM (inactive)

## COc1ccc(-c2nc(C[S+]([O-])CC(=O)NC3CCCC(C)C3C)c(C)o2)cc1OC (stereo unspecified)
[1]
  EC50: > 112 µM (not active)
[2]
  EC50: > 112 µM (not active)

## COc1ccc(Cn2nnnc2C(c2ccccc2Cl)N2CCC(C(N)=O)CC2)cc1 (stereo unspecified)
[12]
  EC50: > 195 µM (not active)

## CCN1C(NCCc2cccs2)=N[C@@H](c2cccs2)C(C(=O)OC)=C1C
[12]
  EC50: > 195 µM (not active)

## CC1=C(C(=O)Nc2ccccc2C)C(c2cccs2)NC(S)=N1 (stereo unspecified)
[12]
  EC50: > 195 µM (not active)

## CCN=C(S)NS(=O)(=O)c1ccc(C)cc1
[5]
  IC50: > 66 µM (inactive)
[6]
  IC50: > 66 µM (inactive)

## C[C@@H]1CCCCO[C@H](CN(C)S(=O)(=O)c2ccc(Cl)cc2)[C@@H](C)CN([C@@H](C)CO)C(=O)c2cc(NC(=O)CCC(F)(F)F)ccc2O1
[14]
  AC50: 3.2 µM (active)

## CCOc1ccccc1NC(=O)CCS(=O)(=O)c1cccs1
[12]
  EC50: > 195 µM (not active)

## COC(=O)c1sccc1NC(=O)Nc1cccc(F)c1
[7]
  EC50: 237 µM (active)
[1]
  EC50: 0.93 µM (active)
[2]
  EC50: 4.6 µM (active)

## Cc1ccc(/C=C/C(=O)N2CC(C)CC(C)C2)o1 (stereo unspecified)
[7]
  EC50: 24.5 µM (active)
[15]
  AC50: 22.8 µM (active)
[8]
  CC50: > 40 µM (active)

## C[C@H](CO)N1C[C@H](C)[C@H](CN(C)C(=O)NC2CCCCC2)OCCCC[C@H](C)Oc2ccc(NC(=O)Nc3ccc(C(F)(F)F)cc3)cc2C1=O
[14]
  AC50: 6.15 µM (active)

## CCN(CC)CCCN1C(=O)CSC1c1ccc([N+](=O)[O-])cc1 (stereo unspecified)
[5]
  IC50: > 66 µM (inactive)
[6]
  IC50: > 66 µM (inactive)
